# Reference: patent US11414374B2, “Crystalline forms of vilanterol trifenatate and processes for their preparation” (Hovione Scientia Limited, priority 2017, dated 2022)
# Entries after “also recorded” stand apart in the source; their conditions may differ.
# Columns and labels:
# Type in all cases: physicochemical
# [1] = Dynamic vapor sorption (DVS) analysis / hygroscopicity (EP 7.0 classification); details: for Hygroscopically (DVS): DVS hygroscopicity class; for XRPD after DVS: resulting form after DVS; for mass increase by dynamic vapor sorption analysis (hygroscopicity): first sorption cycle, relative to 40% RH; for Change In Mass (%) Desorption / Change In Mass (%) Hysteresis / Change In Mass (%) Sorption: DVS, 25° C.
# Procedure: The hygroscopicity value is directly obtained from the sorption row at 80% RH, cycle 1.
# Hygroscopicity of a sample of each of new form II and comparative form I was determined using the protocol provided below in conditions of 80% RH and 25° C.
# The sample was subjected to DVS measuring using SMS-DVS intrinsic. The kinetic moisture sorption measurement was performed at 25° C. and in a RH % range described in the following: • From 40% RH to 90% RH • Form 90% RH to 0% RH • From 0% RH to 90% RH • From 90% RH to 0% RH
# The sample was analyzed by XRPD after the analysis.
# The hygroscopicity was calculated using the following equation: % Weight Change=[(W2−W1)/W1]*100 W1: weight of sample at the start of the experiment (25° C. and 40% RH) W2: weight of sample at 25° C. and 80% RH in the first absorption cycle
# [2] = Storage stability of exposed powder at 25° C. and 60% RH for seven days, compared by XRPD; details: for Stability test (25° C. 60% RH-7 d): resulting form
# Procedure: Approximately 30 mg of exposed powder of comparative form 1 and new forms II and III, respectively, were stored at 25′C and 60% RH for seven days. Each powder was then analyzed by XRPD and its diffraction pattern was compared with that of untreated sample.
# [3] = DSC - differential scanning calorimetry; details: for DSC (onset) endo. solvent loss + melting: endothermic event: solvent loss + melting (Form 6: + Form 2 melting; Form 14: + Form 3 melting); for DSC (onset) endo. solvent loss: endothermic event: solvent loss; for DSC (onset) endo. Form 1 melting: endothermic event: Form 1 melting; for DSC (onset) endo. degradation: endothermic event: degradation
# Procedure: The analysis was carried out using a DSC Q200 TA instruments equipped with a refrigerator cooling system (RCS40) and autosampler. The sample was weighed in an aluminum hermetic pan with pinhole. The analysis was performed heating the sample from 25° C. to 350° C. at 10° C./min.
# [4] = TGA / TGA-EGA thermogravimetric analysis with evolved gas analysis; details: for EGA: evolved solvent identified; for TGA overall weight loss: overall loss of the named solvent(s)
# Procedure: The analysis was carried out using the Mettler Toledo TGA/DSC1. The sample was weighed in an aluminum pan hermetically sealed with an aluminum pierced cover. The analysis was performed heating the sample from 25° C. to 320° C. at 10° C./min. TGA-FTIR coupled with Thermo Nicoled is 10 spectometer. The analysis was carried out using the mettler toledo TGA/DSC1. The sample was weighed in an aluminum pan hermetically sealed with an aluminum pierced cover. The analysis was performed heating the sample from 25° C. to 320° C. at 10° C./min. The evolved gas is compared with ft-ir spectra database for identification.
# [5] = Stability test (exposed sample 16 h), form by XRPD; details: resulting form
# [6] = Stability test (sealed vial 18 h), form by XRPD; details: resulting form
# [7] = Stability test (60° C. 75% RH-3 d), form by XRPD; details: resulting form
# XRPD after Grinding = details: resulting form after grinding
# [8] = Visual solubility in differing solvents (European Pharmacopeia 6.0 section 5.11)
# Procedure: Visual solubility of certain forms (compounds) in differing solvents was assessed according to the procedure described in the European Pharmacopeia 6.0 section 5.11. p. The compound was shaken vigorously for 1 min and placed in a constant temperature device for 15 min at 25.0±0.5° C. If the compound was not completely dissolved, the shaking was repeated for 1 min and the tube placed in a constant temperature device for 15 min. 50 mg of compound was weighed in a stoppered tube, 0.05 mL of the solvent added and the Dissolving Procedure (see above) followed. If the compound was completely dissolved, it is very soluble. If the compound was not completely dissolved, a further 0.45 mL of the solvent was added and the Dissolving Procedure (see above) followed. […] If the compound was still not completely dissolved, still further 1.0 mL of the solvent was added and the Dissolving Procedure (see above) followed. If the compound was completely dissolved, it is soluble. If the compound was still not completely dissolved, another 3.5 mL of the solvent was added and the Dissolving Procedure (see above) followed. […] If the compound was still not completely dissolved, the compound is slightly soluble or very slightly soluble. In this case, and the suspension was heated up to the boiling point (max 80° C.) under stirring to verify the solubility at high temperature. The hot solution was afterwards cooled to room temperature to observe whether the compound precipitates. If the compound at room temperature was completely dissolved, it is soluble at high temperature. [table]
# [9] = Micronization in fluid energy jet mill: particle size distribution and XRPD of product
# Description: Vilanterol trifenatate form II is fed to a fluid energy jet mill at 10-100 g/h, operated with N2 at a pressure of 1 to 8 bar for the venturi and a pressure of 1 to 8 bar for the ring.
smiles,measurement,setting,value
"OCc1cc([C@@H](O)CNCCCCCCOCCOCc2c(Cl)cccc2Cl)ccc1O [form VI, vilanterol trifenatate]",Hygroscopically (DVS),[1]; listed as Form 6,Slightly hygroscopic (Increase in mass is less than 2% and equal to or greater than 0.2%)
same,XRPD after DVS,[1]; listed as Form 6,Form 6
same,Stability test (25° C. 60% RH-7 d),[2]; listed as Form 6,Form 1 (almost
same,DSC (onset) endo. solvent loss + melting,[3]; listed as Form 6,endo. 80 °C solvent loss +
same,DSC (onset) endo. solvent loss,[3]; listed as Form 6,endo. 65 °C solvent loss
same,EGA,[4]; listed as Form 6,2-Propanol
same,TGA overall weight loss,[4]; listed as Form 6,One weight loss of 73% w/w
same,Stability test (exposed sample 16 h),[5]; listed as Form 6,Form 12
same,Stability test (sealed vial 18 h),[6]; listed as Form 6,Form 6
same,Stability test (60° C. 75% RH-3 d),[7]; listed as Form 6,Amorphous
"OCc1cc([C@@H](O)CNCCCCCCOCCOCc2c(Cl)cccc2Cl)ccc1O [form XII, vilanterol trifenatate]",Hygroscopically (DVS),[1]; listed as Form 12,Slightly
same,XRPD after DVS,[1]; listed as Form 12,Form 1
same,Stability test (25° C. 60% RH-7 d),[2]; listed as Form 12,Form 1 (almost
same,DSC (onset) endo. Form 1 melting,[3]; listed as Form 12,endo. 134 °C Form 1
same,DSC (onset) endo. degradation,[3]; listed as Form 12,endo. 189 °C
same,DSC (onset) endo. solvent loss,[3]; listed as Form 12,endo. 21 °C solvent loss
same,EGA,[4]; listed as Form 12,Water and 1.2-
same,TGA overall weight loss,[4]; listed as Form 12,One loss of 61.6% w/w
same,Stability test (exposed sample 16 h),[5]; listed as Form 12,Form 12
same,Stability test (sealed vial 18 h),[6]; listed as Form 12,Form 12
same,Stability test (60° C. 75% RH-3 d),[7]; listed as Form 12,Form 1 (almost
same,XRPD after Grinding,XRPD after Grinding; listed as Form 12,Amorphous (few
"OCc1cc([C@@H](O)CNCCCCCCOCCOCc2c(Cl)cccc2Cl)ccc1O [form XI, vilanterol trifenatate]",Hygroscopically (DVS),[1]; listed as Form 11,Slightly hygroscopic (Increase in mass is less than 2% and equal to or greater than 0.2%)
same,XRPD after DVS,[1]; listed as Form 11,Ascribable to Form 11
same,Stability test (25° C. 60% RH-7 d),[2]; listed as Form 11,Form 1 (start
same,DSC (onset) endo. Form 1 melting,[3]; listed as Form 11,endo. 135 °C Form 1
same,DSC (onset) endo. degradation,[3]; listed as Form 11,endo. 188.6 °C
same,DSC (onset) endo. solvent loss,[3]; listed as Form 11,endo. 50-100 °C solvent loss
same,EGA,[4]; listed as Form 11,Cyclohexane and 2-
same,TGA overall weight loss,[4]; listed as Form 11,loss of 51% w/w
same,Stability test (exposed sample 16 h),[5]; listed as Form 11,Form 11
same,Stability test (sealed vial 18 h),[6]; listed as Form 11,Form 11
same,Stability test (60° C. 75% RH-3 d),[7]; listed as Form 11,Form 1 (almost
same,XRPD after Grinding,XRPD after Grinding; listed as Form 11,Form 12
"OCc1cc([C@@H](O)CNCCCCCCOCCOCc2c(Cl)cccc2Cl)ccc1O [form X, vilanterol trifenatate]",Hygroscopically (DVS),[1]; listed as Form 10,Slightly
same,XRPD after DVS,[1]; listed as Form 10,Form 1
same,Stability test (25° C. 60% RH-7 d),[2]; listed as Form 10,Form 1
same,DSC (onset) endo. degradation,[3]; listed as Form 10,endo. 188 °C
same,DSC (onset) endo. solvent loss + melting,[3]; listed as Form 10,endo. 69 °C solvent
same,EGA,[4]; listed as Form 10,Ethanol
same,Stability test (exposed sample 16 h),[5]; listed as Form 10,Form 10
same,Stability test (sealed vial 18 h),[6]; listed as Form 10,Form 10
same,Stability test (60° C. 75% RH-3 d),[7]; listed as Form 10,Form 1
same,XRPD after Grinding,XRPD after Grinding; listed as Form 10,Amorphous
"OCc1cc([C@@H](O)CNCCCCCCOCCOCc2c(Cl)cccc2Cl)ccc1O [form II, vilanterol trifenatate]","hygroscopicity classification according to the European Pharmacopoeia (EP, version 7.0)",[1]; 80% RH and 25° C.,non-hygroscopic; also recorded: not hygroscopic
same,mass increase by dynamic vapor sorption analysis (hygroscopicity),[1]; 80% RH and 25° C.,0.04%
same,mass increase by dynamic vapor sorption analysis (hygroscopicity),"[1]; 80% RH and 25° C., listed as polymorph II",0.04%
same,Change In Mass (%) Desorption,"[1]; Cycle 1, target RH 0.0%",−0.03351%
same,Change In Mass (%) Desorption,"[1]; Cycle 1, target RH 10.0%",−0.01706%
same,Change In Mass (%) Desorption,"[1]; Cycle 1, target RH 20.0%",−0.00684%
same,Change In Mass (%) Desorption,"[1]; Cycle 1, target RH 30.0%",0.00031%
same,Change In Mass (%) Desorption,"[1]; Cycle 1, target RH 40.0%",0.00692%
same,Change In Mass (%) Hysteresis,"[1]; Cycle 1, target RH 40.0%",0.00707%
same,Change In Mass (%) Sorption,"[1]; Cycle 1, target RH 40.0%",−0.00015%
same,Change In Mass (%) Desorption,"[1]; Cycle 1, target RH 50.0%",0.01476%
same,Change In Mass (%) Hysteresis,"[1]; Cycle 1, target RH 50.0%",0.00868%
same,Change In Mass (%) Sorption,"[1]; Cycle 1, target RH 50.0%",0.00607%
same,Change In Mass (%) Desorption,"[1]; Cycle 1, target RH 60.0%",0.02244%
same,Change In Mass (%) Hysteresis,"[1]; Cycle 1, target RH 60.0%",0.00892%
same,Change In Mass (%) Sorption,"[1]; Cycle 1, target RH 60.0%",0.01353%
same,Change In Mass (%) Desorption,"[1]; Cycle 1, target RH 70.0%",0.03051%
same,Change In Mass (%) Hysteresis,"[1]; Cycle 1, target RH 70.0%",0.00892%
same,Change In Mass (%) Sorption,"[1]; Cycle 1, target RH 70.0%",0.0216%
same,Change In Mass (%) Desorption,"[1]; Cycle 1, target RH 80.0%",0.04181%
same,Change In Mass (%) Hysteresis,"[1]; Cycle 1, target RH 80.0%",0.0043%
same,Change In Mass (%) Sorption,"[1]; Cycle 1, target RH 80.0%",0.0375%
same,Change In Mass (%) Desorption,"[1]; Cycle 1, target RH 90.0%",0.05802%
same,Change In Mass (%) Sorption,"[1]; Cycle 1, target RH 90.0%",0.05802%
same,Change In Mass (%) Sorption,"[1]; Cycle 2, target RH 0.0%",−0.03351%
same,Change In Mass (%) Sorption,"[1]; Cycle 2, target RH 10.0%",−0.0229%
same,Change In Mass (%) Sorption,"[1]; Cycle 2, target RH 20.0%",−0.01545%
same,Change In Mass (%) Sorption,"[1]; Cycle 2, target RH 30.0%",−0.00907%
same,Change In Mass (%) Sorption,"[1]; Cycle 2, target RH 40.0%",−0.00261%
same,Change In Mass (%) Sorption,"[1]; Cycle 2, target RH 50.0%",0.00277%
same,Change In Mass (%) Sorption,"[1]; Cycle 2, target RH 60.0%",0.01068%
same,Change In Mass (%) Sorption,"[1]; Cycle 2, target RH 70.0%",0.01821%
same,Change In Mass (%) Sorption,"[1]; Cycle 2, target RH 80.0%",0.03189%
same,Change In Mass (%) Sorption,"[1]; Cycle 2, target RH 90.0%",0.04819%
same,stability / XRPD pattern after DVS analysis,"[1]; XRPD after DVS analysis, compared with untreated sample",showed stability after DVS analysis
same,modifications in XRPD pattern after storage (structural stability),"[2]; 60% RH and 25° C. for 7 days, exposed powder",No significant modifications in XRPD pattern
same,solubility at 15 min,"[8]; ethanol, 50 °C, organic solvent or mixture, thermodynamic from solid, ethanol at 50° C., read-out: visual solubility in ethanol",10 to 33 mg/mL
same,visual solubility in water,[8]; water at 75° C.,insoluble
same,XRPD of micronized product versus starting material,[9]; after fluid energy jet milling,identical to the one of the starting material
same,particle size distribution Dv90 after micronization,"[9]; fluid energy jet mill, N2",below 10 μm
